From patent publication US10849875B2, “Cancer specific lipid targeted peptidomimetics” (University of Houston System, priority 2015, dated 2020)
Positions of bridges follow the written chain, without caps; N, C: chain ends. Non-standard residues stand in square brackets, D forms with d. Residues, ends and D or L forms follow the SMILES beside them. Chains are numbered I, II in the order given. Gly(N-piperonyl) = O=C(O)CNCc1ccc2c(c1)OCO2; N(4-MeOBn)Gly = COc1ccc(CNCC(=O)O)cc1; Nrpe = C[C@@H](NCC(=O)O)c1ccccc1; Nlys = NCCCCNCC(=O)O

Tests used:
MTD studies of PPS1D1 = assay: MTD studies of PPS1D1; set-up: species or system mice; conditions: mouse, in vivo
Procedure: […] (MTD) studies were performed by injecting PPS1D1 into mice. […] In vivo localization studies were performed with biotinylated versions of PPS1D1 and PC462D1. Animals were injected intravenously with 100 μL of biotinylated PPS1D1 or PC462D1 (500 μg/mL) and sacrificed at 1 and 4 h post injection. Tissue was collected, snap frozen, and sectioned and the presence of the PPS1D1 and PC462D1 determined by streptavidin-Cy3.

HCC4017 cells = assay: MTS cell viability assay; format: cell-based, human
Procedure: After confirming the binding and specificity of the PPS1 on HCC4017 lung cancer cells, whether this compound has any biological effects on HCC4017 lung cancer cells was assayed. The gold standard cell viability (MTS) assay was used. […] On one of the repetitive experiments of this assay, Cystinylated-PPS1 compound was included (FIG. 6A). This was the intermediate compound used to attach the FITC-malemide for binding assays described previously. […] The only difference between this Cystinylated-PPS1 and the original PPS1 compound was just a single cysteine amino acid at the C-terminal. It was difficult to rationalize having a single amino acid residue at the terminus of the sequence causing a large difference of activity, other possibilities were considered. Cysteine has sulfur (—SH) group on the side chain and two of these can easily form disulfide bonds. […]
A homo-dimeric version of PPS1 was synthesized. […] The resulting dimeric version of the PPS1 compound, PPS1D1 (FIG. 6C), and the analogous dimeric versions of scrambled PC2, PC2D1 (FIG. 6E), and control compound C462, PC462D1 (FIG. 82), were then evaluated for activity. […] As described above, HCC4017 cells and HBEC30kt and HBEC3kt cells were grown in 96 well plates on day 1, treated serial dilutions of PPS1, PPS1D1, C462 and C462D1 on day 2, and viable cell count was measured using MTS reagent on day 3. […]

[1] = tested on: HCC4017, H460, H358, H441, H1819, H1993, H2122, MD-MB-231 and PC3 cells; assay: In vitro cancer cell killing (MTS cell viability assays and FACS studies); format: cell-based, human; conditions: lung, breast and prostate cancer cells
From the text: Various derivatives of PPS1 have been developed that have similar and improved activities. FIGS. 15-22, 36-51.

[2] = Lipid ELISA-like binding assay
From the text: Structural features of PPS1and PS were compared to determine why PPS1 preferred PS over PC. PPS1 has three positive charged residues aligned together and a hydrophobic region with four consecutive aromatic rings (FIG. 9A). This can perfectly form both electrostatic and hydrophobic interactions with opposing negatively charged PS head groups and its hydrophobic tail regions.
One of the major questions arising at this point is how PPS1 or PPS1D1 specifically recognizes PS over PC, as both lipids have negatively charged phosphate head groups. To address this specificity concern, ELISA-like binding assay were expanded to include other membrane phospholipids such as phosphatidylethanolamine (PE), sphingomyelin (SM), phosphatidic acid (PA), phosphatidylinositol (PI) and phosphatidylglycerol (PG). […] This additional negative charge can be responsible for the interaction with the positively charged region of PPS1 or PPS1D1, while the hydrophobic regions of PPS1 or PPS1D1 may interact with hydrophobic tail groups of the lipids through van der Waals forces. […] The membrane was treated with biotin labeled PPS1D1 and binding was detected by immunoblotting with streptavidin-HRP. […] It has been reported that PS can form a bilayer lamellar and reverse hexagonal phase. PS is mainly in a lamellar phase after hydration at physiological pH. By validating our binding through an ELISA-like assay and liposomes, PPS1D1 has an equal opportunity to bind to each phase of PS.
Lipids (Avanti Polar Lipids) were dissolved in hexane at 10 μg/ml and coated on to Immulon 1B “U” bottom microtiter plates (ThermoFisher, MA). Hexane was evaporated at room temp (in the hood) and the plates were blocked with 200 μl of 1% BSA in PBS for 1 hour. Plates were washed with 3× PBS. […] Plates were washed with 5× PBS and binding was detected with streptavidin-HRP (1:2000 in blocking buffer) followed by 100 μl OPD (Sigma-Aldrich). The reaction was stopped with 100 μl 0.18M H2SO4 and absorbance was read at 490 nm using the spectrophotometer (Spectramax i3, Molecular Devices, CA).

For `COc1ccc(CN(CC(=O)N(CCCCN)CC(=O)N[C@@H](CCCCN)C(=O)N[C@H](CCCCN)C(=O)N[C@@H](CCSC)C(=O)NCCCC[C@H](NC(=O)[C@H](CCSC)NC(=O)[C@@H](CCCCN)NC(=O)[C@H](CCCCN)NC(=O)CN(CCCCN)C(=O)CN(Cc2ccc(OC)cc2)C(=O)CN(C(=O)CN(Cc2ccc3c(c2)OCO3)C(=O)CN[C@H](C)c2ccccc2)[C@H](C)c2ccccc2)C(N)=O)C(=O)CN(C(=O)CN(Cc2ccc3c(c2)OCO3)C(=O)CN[C@H](C)c2ccccc2)[C@H](C)c2ccccc2)cc1` [PPS1D1] (I: H-[Nrpe][Gly(N-piperonyl)][Nrpe][N(4-MeOBn)Gly][Nlys]K[dK]MK-NH2 / II: H-[Nrpe][Gly(N-piperonyl)][Nrpe][N(4-MeOBn)Gly][Nlys]K[dK]M; amide I:9-II:C; N-terminus assumed), the MTD (MTD studies of PPS1D1; mice bearing subcutaneous HCC4017 xenografts) was 1 mg/kg, the MTD (MTD studies of PPS1D1; nontumor bearing animals) was 5 mg/kg and the “activity at different times post treatment” value (HCC4017 cells; HCC4017, tested at 6, 12 and 24 hours post treatment) was “somewhat similar”. The IC50 (HCC4017 cells; MTS, HCC4017) was roughly 10 µM, the “in vitro cancer cell killing activity” value [1] was “strong in vitro cancer cell killing activity” and the “binding to PA” value [2] was “displayed binding”. The “binding to PG” value [2] was “displayed binding” and the “binding to PI” value [2] was “displayed binding”.
